Results from patent publication US20080261933A1, “COMBINATION OF PROGESTERONE-RECEPTOR ANTAGONIST TOGETHER WITH A LUTEIN-HORMONE-RELEASING HORMONE AGONIST AND ANTAGONIST FOR USE IN BRCA MEDIATED DISEASES” (priority 2007, published 2008).

Columns and labels:
[1] = oral; cited from earlier work
[2] = test system: glucocorticoid; settings: causes severe side effects; cited from earlier work
[3] = test system: mammary tumors in Brca1/p53-deficient mice; settings: mice with BRCA1- or BRCA2 inactivated in mammary glands; cited from earlier work
[4] = molecular target: T1, progesterone receptor (Homo sapiens, UniProt P06401); assay: Endocrinological profile of the progesterone-receptor antagonist
T1 sequence (P06401 1-933): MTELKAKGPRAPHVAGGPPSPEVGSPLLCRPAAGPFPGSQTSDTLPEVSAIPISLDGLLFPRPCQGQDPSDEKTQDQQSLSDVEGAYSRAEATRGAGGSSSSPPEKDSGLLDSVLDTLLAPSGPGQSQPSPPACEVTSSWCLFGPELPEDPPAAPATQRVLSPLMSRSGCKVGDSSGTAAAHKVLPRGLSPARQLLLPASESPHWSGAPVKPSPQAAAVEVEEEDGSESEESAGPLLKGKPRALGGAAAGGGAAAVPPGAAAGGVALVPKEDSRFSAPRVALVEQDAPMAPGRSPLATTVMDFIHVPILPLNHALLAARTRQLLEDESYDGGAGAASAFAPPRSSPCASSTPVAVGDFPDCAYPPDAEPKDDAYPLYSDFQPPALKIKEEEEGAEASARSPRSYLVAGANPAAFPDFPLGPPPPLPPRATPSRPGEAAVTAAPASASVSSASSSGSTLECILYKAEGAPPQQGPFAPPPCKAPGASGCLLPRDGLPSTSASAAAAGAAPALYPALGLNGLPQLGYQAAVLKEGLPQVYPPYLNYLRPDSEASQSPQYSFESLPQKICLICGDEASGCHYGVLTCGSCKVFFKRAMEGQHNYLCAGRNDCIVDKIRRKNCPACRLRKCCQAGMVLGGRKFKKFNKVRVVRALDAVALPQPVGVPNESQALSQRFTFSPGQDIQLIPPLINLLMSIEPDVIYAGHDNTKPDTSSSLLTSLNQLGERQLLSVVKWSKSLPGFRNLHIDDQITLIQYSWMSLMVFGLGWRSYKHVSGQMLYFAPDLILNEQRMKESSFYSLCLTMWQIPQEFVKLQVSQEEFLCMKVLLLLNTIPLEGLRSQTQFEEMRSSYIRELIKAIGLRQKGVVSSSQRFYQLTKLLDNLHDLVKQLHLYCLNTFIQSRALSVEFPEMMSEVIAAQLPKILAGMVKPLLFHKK
Text: has high antiprogestagenic activity with little or no other endocrinological effects (Fuhrmann, U. et al., J. Med. Chem. 2000, 43, 5010-5016).

[5] = test system: tumor cells; assay: Apoptosis of tumor cells
Text: Such other hormone-dependent diseases may include ovarian cancer, endometrial cancer, myeloma, myoma, lung cancer, meningioma, i.e., diseases which substantially originate or are influenced by the presence of hormone receptors and/or hormone-dependent pathways.

[6] = molecular target: T1, progesterone receptor; settings: Fuhrmann et al., J. Med. Chem. 2000; cited from earlier work

## CC#C[C@]1(O)CC[C@H]2[C@@H]3CCC4=CC(=O)CCC4=C3[C@@H](c3ccc(N(C)C)cc3)C[C@@]21C [mifepristone]
[1]
  bioavailability when administered orally: poor
[2]
  anti-glucocorticoid activity: strong
[3]
  development of mammary tumors: blocks the development of mammary tumors

## CC(=O)c1ccc([C@H]2C[C@@]3(C)[C@@H](CC[C@@]3(O)C(F)(F)C(F)(F)F)[C@@H]3CCC4=CC(=O)CCC4=C32)cc1 [ZK230211, 11β-(4-acetylphenyl)-17β-hydroxy-17α-(1,1,2,2,2-pentafluoroethyl)-estra-4,9-dien-3-one]
[4]
  endocrine side effects such as androgen, estrogen or antiglucocorticoid activity: only very weak or no
[5]
  apoptosis of tumor cells: increased apoptosis
[6]
  antiprogestagenic activity: high
  other endocrinological effects: little or no
